Source: ChEMBL document CHEMBL1125729, “A cardioselective, hydrophilic N,N,N-trimethylethanaminium alpha-tocopherol analogue that reduces myocardial infarct size” (J Med Chem, 1991)

Assays:
[1] = Partition coefficient (logD) (octanol/phosphate buffer); type: physicochemical
Rattus norvegicus [2] = species: Rattus norvegicus; assay: Compound was evaluated for prevention of spontaneous lipid peroxidation in rat brain homogenate.; type: functional
Rattus norvegicus [3] = assay: Total radioactivity 1 hour after intravenous administration of 1 mg/kg in rat heart.; type: functional
Rattus norvegicus [4] = assay: Total radioactivity 1 hour after intravenous administration of 1 mg/kg in rat blood.; type: functional
[5] = Ratio of total radioactivity of skeletal muscle to blood in rats.
Rattus norvegicus [6] = assay: Total radioactivity 1 hour after intravenous administration of 1 mg/kg in rat skeletal muscle.; type: functional, Muscle tissue
[7] = Ratio of total radioactivity of heart tissue to blood in rats.; type: tissue-based
[8] = Ratio of total radioactivity of blood to blood in rats.

Row | Compound | logD [1] | IC50 (Rattus norvegicus [2]) [µM] | Ratio [5] | Ratio [8] | Total radioactivity (Rattus norvegicus [3]) | Total radioactivity (Rattus norvegicus [4]) | Total radioactivity (Rattus norvegicus [6]) | Ratio [7]
1 | Cc1c(C)c2c(c(C)c1O)CCC(C)(CC[N+](C)(C)C)O2 (stereo unspecified) | -0.6 | 1.7 | – | – | – | – | – | –
2 | CC(=O)Oc1c(C)c(C)c2c(c1C)CCC(C)(CCN(C)C)O2 (stereo unspecified) | 1.56 | – | 1.5 | 1 | 0.28 | 0.18 | 0.27 | 1.6
3 | Cc1c(C)c2c(c(C)c1O)CCC(C)(C(=O)O)O2 (stereo unspecified) [TROLOX] | -1.02 | 12 | – | – | – | – | – | –

Second part, led by results:

Row | logD [1] | IC50 (Rattus norvegicus [2]) [µM] | Ratio [5] | Ratio [8] | Compound | Total radioactivity (Rattus norvegicus [3]) | Total radioactivity (Rattus norvegicus [4]) | Total radioactivity (Rattus norvegicus [6]) | Ratio [7]
4 | -0.18 | – | 1.7 | 1 | CC(=O)Oc1c(C)c(C)c2c(c1C)CCC(C)(CC[N+](C)(C)C)O2 (stereo unspecified) | 2.28 | 0.11 | 0.19 | 20.7
5 | 1.15 | 0.5 | – | – | Cc1c(C)c2c(c(C)c1O)CCC(C)(CCN(C)C)O2 (stereo unspecified) | – | – | – | –
6 | – | 12 | – | – | Cc1c(C)c2c(c(C)c1O)CC[C@@](C)(CCC[C@H](C)CCC[C@H](C)CCCC(C)C)O2 (racemic) [ALPHA-TOCOPHEROL] | – | – | – | –
